What all share (format): in vivo, Lewis rats
The test system of one test is CIA rats. Put plainly: Maximum arthritic index (MAI) of CIA rats fed PA crude extracts (Embodiment 2). The settings on record: gavage until Day 45, PA-H 375, PA-L 75, indomethacin 2.5 mg/kg/day, FIG. 4. Here is the method:
The animal test scheme is shown as FIG. 2. Bovine collagen Type II (Bovine C II) was dissolved in 0.1 M acetic acid solution, stirred to dissolve thoroughly, and formulated into solutions with concentrations of 1.5 and 3 mg/ml, which were stored in 4° C. for later use. For the first immune injection, 100 μl of C II solution was emulsified with an equal amount of CFA, and injected subcutaneously (200 μl/rat) in the root portions of tails of the rats after the emulsification was complete. […] After about 15 days, the second immunization was done. 100 μl of C II solution was emulsified with an equal amount of IFA, and injected subcutaneously (200 μl/rat) in the root portions of tails of the rats after the emulsification was complete. Approximately from Day 20, the symptoms of arthritis were observed (CIA rats), and PA and indomethacin were fed until Day 45. [table] 2. Evaluation of RA examination: evaluated in maximum arthritic index (MAI) After immunization, the rats were observed three times a week. The changes of redness and swelling or the like in limbs were recorded, and photographs were taken and filed for comparison. […] Maximum arthritic index, average MAI for each group was calculated as follows: Average MAI=Total of MAI recorded in limbs of each rat (0: no CIA occurs, 16: highest score)/4/total rat number of each group

The test system of another test is Rheumatoid factor (RF). Put plainly: Serum RF analysis of CIA rats fed PA crude extracts (Embodiment 2). Here is the method: The animal test scheme is shown as FIG. 2. Bovine collagen Type II (Bovine C II) was dissolved in 0.1 M acetic acid solution, stirred to dissolve thoroughly, and formulated into solutions with concentrations of 1.5 and 3 mg/ml, which were stored in 4° C. for later use. For the first immune injection, 100 μl of C II solution was emulsified with an equal amount of CFA, and injected subcutaneously (200 μl/rat) in the root portions of tails of the rats after the emulsification was complete. […] After about 15 days, the second immunization was done. 100 μl of C II solution was emulsified with an equal amount of IFA, and injected subcutaneously (200 μl/rat) in the root portions of tails of the rats after the emulsification was complete. Approximately from Day 20, the symptoms of arthritis were observed (CIA rats), and PA and indomethacin were fed until Day 45. [table] 1. Collagen was formulated in a coating buffer to a concentration of 40 μg/ml, 0.1 ml of which was added into a 96-well micro plate respectively, and was kept in 4° C. overnight. 2. After washing with Tris buffer three times, 0.2 ml of blocking buffer containing 1% BSA was added into each well. The reaction lasted for 2 hours at room temperature, and then was washed by Tris buffer three times again. 3. […] Finally, absorption (O.D) value was read out at the wavelength of 450 nm.

The test system of another test is TNF-α. Put plainly: Abdominal cavity cell (PEC) culture, cytokine TNF-α, CIA rats fed PA crude extracts (Embodiment 2). The settings on record: LPS 10 μg/ml, 24 hours, FIG. 8. Here is the method:
(§1) The animal test scheme is shown as FIG. 2. Bovine collagen Type II (Bovine C II) was dissolved in 0.1 M acetic acid solution, stirred to dissolve thoroughly, and formulated into solutions with concentrations of 1.5 and 3 mg/ml, which were stored in 4° C. for later use. For the first immune injection, 100 μl of C II solution was emulsified with an equal amount of CFA, and injected subcutaneously (200 μl/rat) in the root portions of tails of the rats after the emulsification was complete. […] After about 15 days, the second immunization was done. 100 μl of C II solution was emulsified with an equal amount of IFA, and injected subcutaneously (200 μl/rat) in the root portions of tails of the rats after the emulsification was complete. Approximately from Day 20, the symptoms of arthritis were observed (CIA rats), and PA and indomethacin were fed until Day 45. [table] 1. After carbon dioxide euthanasia, the outer furs of the rat abdominal cavity were cut out by scissors, to expose the whole abdominal cavity. 2. HBSS buffer was injected into the abdominal cavity batch-wise by a 10 ml syringe to make a total volume of about 20 ml/rat. 3. The abdominal cavity of the rat was opened after the abdomen was gently kneaded. An incision of about 2 cm was made in the abdominal cavity by using scissors. […] The concentrations of cytokine TNF-α, IL-6, and IL-1β were analyzed by using ELISA kit.

The test system of a further test is IL-6. Put plainly: Abdominal cavity cell (PEC) culture, cytokine IL-6, CIA rats fed PA crude extracts (Embodiment 2). To be noted: LPS 10 μg/ml, 24 hours, FIG. 9. Here is the method: as §1

Consider `COc1ccc2c(c1)c(CC(=O)O)c(C)n2C(=O)c1ccc(Cl)cc1` [indomethacin, Indomethacin], for which the “effect on the arthritic indices (MAI) of CIA rats” value in the test with CIA rats was “most preferred”. In addition, the “reduction of serum RF value” in the test on Rheumatoid factor (RF) (Day 35 compared with Day 20, FIG. 6) was found to be 47%; in the test with Rheumatoid factor (RF) (Day 45 compared with Day 20, FIG. 6), 51%. The “inhibition of PEC secreting TNF-α” value in the test with TNF-α was “no effect of inhibiting PEC from secreting inflammatory cytokine”. Further, the “inhibition of PEC secreting IL-6” value in the test with IL-6 was “no effect of inhibiting PEC from secreting inflammatory cytokine”.
